Source: US9657018B2, “Antagonists acting at multiple prostaglandin receptors for the treatment of inflammation” (Allergan, Inc., priority 2014, dated 2017)
Counter-ions that a name gives are not always drawn.

Biological target: T1, human prostanoid DP1 receptor (Homo sapiens, UniProt Q13258)
T1 construct: expressed in transfected cells
T1 sequence (Q13258 1-359): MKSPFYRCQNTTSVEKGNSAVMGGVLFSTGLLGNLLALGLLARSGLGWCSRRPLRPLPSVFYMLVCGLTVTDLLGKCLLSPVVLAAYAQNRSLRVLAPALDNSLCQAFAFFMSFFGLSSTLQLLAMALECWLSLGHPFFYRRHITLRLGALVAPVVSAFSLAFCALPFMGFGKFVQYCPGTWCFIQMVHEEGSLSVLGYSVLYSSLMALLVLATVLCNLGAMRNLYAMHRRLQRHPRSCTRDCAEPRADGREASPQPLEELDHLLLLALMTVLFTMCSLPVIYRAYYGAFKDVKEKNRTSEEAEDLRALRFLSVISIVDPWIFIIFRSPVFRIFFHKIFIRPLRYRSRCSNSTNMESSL
Test: FLIPR Ca2+ signaling antagonist assay, DP1 receptor stable cell line
Assay type: cell-based
Set-up: key to FLIPR data DP1 (Kb): PAg = partial agonist; Ag = agonist; NA = not active
Conditions: human recombinant DP1 + chimeric Gqs in HEK-293 EBNA cells; standard agonist BW 245C; NA = no antagonism or Kb>=10,000 nM
Experimental: The above compounds were tested for PG antagonist activity as follows using human recombinant prostanoid receptor (DP1, EP1-4, FP, IP and TP) stable cell lines:
In order to measure the response of Gs and Gi coupled prostanoid receptors as a Ca^2+ signal, chimeric G protein cDNAs were used. Stable cell lines over-expressing human prostanoid DP1, EP1-4, FP, IP, and TP receptors were established as follows:
Briefly, human prostanoid DP1, EP2, and EP4 receptor cDNAs were co-transfected with chimeric Gqs cDNA containing a haemagglutanin (HA) epitope; human prostanoid EP3 receptors were co-transfected with chimeric Gqi-HA; human EP1, FP, IP, and TP receptor cDNAs were expressed with no exogenous G-proteins. Gqs and Gqi chimeric cDNAs (Molecular Devices, Sunnyvale, Calif., U.S.A.), as well as cDNAs of prostanoid receptors, were cloned into a pCEP4 vector with a hygromycin B selection marker. Transfection into HEK-293 EBNA (Epstein-Barr virus nuclear antigen) cells was achieved by the FuGENE 6 transfection Reagent (Roche Applied Science, Indianapolis, Ind., USA). Stable transfectants were selected according to hygromycin resistance. Because Gqs and Gqi contained an HA epitope, G-protein expression was detected by Western blotting analysis using anti-mouse HA monoclonal antibody and horseradish peroxidase (HRP)-conjugated secondary antibody, while functional expression of prostanoid receptors was detected by FLIPR screening (Matias et al., 2004). These stable cell lines were validated using previously published antagonists at 10 μM against serial dilutions of standard agonists by FLIPR functional assays for Ca^2+ Signaling (as described below).
Ca^2+ signaling studies were performed using a FLIPR TETRA system (Molecular Devices, Sunnyvale, Calif., USA) in the 384-format. This is a high-throughput instrument for cell-based assays to monitor Ca^2+ signaling associated with GPCRs and ion channels. Cells were seeded at a density of 5×10^4 cells/well in BioCoat poly-D-lysine coated, black wall, clear bottom 384-well plates (BD Biosciences, Franklin lakes, NJ, USA) and allowed to attach overnight in an incubator at 37° C. The cells were then washed twice with HBSS-HEPES buffer (Hanks' balanced salt solution without bicarbonate and phenol red, 20 mM HEPES, pH 7.4) using an ELx405 Select CW Microplate Washer (BioTek, Winooski, Vt., USA). After 60 min of dye-loading in the dark using the Ca^2+-sensitive dye Fluo-4AM (Invitrogen, Carlsbad, Calif., USA), at a final concentration of 2×10^−6M, the plates were washed 4 times with HBSS-HEPES buffer to remove excess dye and leaving 50 μl of buffer in each well. The plates were then placed in the FLIPR TETRA instrument and allowed to equilibrate at 37° C. AGN-211377 was added in a 25 μl volume to each well to give final concentrations of 0.1 μl. M, 0.4M, 1 μM, 3 μl. M, 10 μl. M, and 30 μl. M; or 0.067 μM, 0.4M, 0.67 μM, and 1 μM for cells over-expressing TP receptors. After 4.5 minutes, a 7-point serial dilution of the standard agonist for the corresponding receptor, in a 25 μl volume was injected at the final concentrations from 10^−11M to 10^−5M in 10-fold serial dilution increments for cells expressing human recombinant DP1, EP1, EP2, EP3, EP4, FP, and IP receptors. The dose range for the standard agonist for human recombinant TP receptors was from 10^−12M to 10^−6M. HBSS-HEPES buffer was used as the negative control for the standard agonists. Cells were excited with LED (light emitting diode) excitation at 470-495 nm and emission was measured through an emission filter at 515-575 nm. Assay plates were read for 3.5 minutes using the FLIPR^TETRA. The peak increase in fluorescence intensity was recorded for each well. On each plate, negative controls, dose response of positive controls, and co-treatments of antagonist-agonist for each dose were in triplicates. Standard agonists were as follows: DP=BW 245C, EP1-EP4=PGE2, FP=17-phenyl-PGF2a, IP=Cicaprost, and TP=U-46619. […]

CC(C)Cn1ncc2cc(Cl)cc(Cn3cnc4cc(C(=O)O)ccc43)c21 [Compound 50, 1-(5-Chloro-1-isobutyl-1H-indazol-7-ylmethyl)-1H-benzoimidazole-5-carboxylic acid] and CC(C)Cn1ncc2cc(C(F)(F)F)cc(Cn3cnc4cc(C(=O)O)ccc43)c21 [Compound 55, 1-(1-Isobutyl-5-trifluoromethyl-1H-indazol-7-ylmethyl)-1H-benzoimidazole-5-carboxylic acid] cannot be ordered by Kb: greater than 10000 nM for the first, greater than 10000 nM for the second.

Going from CC(C)Cn1ncc2cc(OC(F)(F)F)cc(Cn3cnc4cc(C(=O)O)ccc43)c21 [Compound 56, 1-(1-Isobutyl-5-trifluoromethoxy-1H-indazol-7-ylmethyl)-1H-benzoimidazole-5-carboxylic acid] to CC(C)Cn1ncc2cc(OC(F)(F)F)cc(Cn3ncc4cc(C(=O)O)ccc43)c21 [Compound 45, 1-(1-Isobutyl-5-trifluoromethoxy-1H-indazol-7-ylmethyl)-1H-indazole-5-carboxylic acid], the Kb falls from 5200 nM to 300 nM (17-fold).

Going from CC(C)n1ncc2cc(Br)cc(Cn3ncc4cc(C(=O)O)ccc43)c21 [Compound 46, 1-(5-Bromo-1-isopropyl-1H-indazol-7-ylmethyl)-1H-indazole-5-carboxylic acid] to CC(C)Cn1ncc2cc(Br)cc(Cn3ncc4cc(C(=O)O)ccc43)c21 [Compound 42, 1-(5-Bromo-1-isobutyl-1H-indazol-7-ylmethyl)-1H-indazole-5-carboxylic acid], the Kb falls from greater than 10000 nM to 590 nM.

Going from CC(C)Cn1ncc2cc(F)cc(Cn3ncc4cc(C(=O)O)ccc43)c21 [Compound 43, 1-(5-Fluoro-1-isobutyl-1H-indazol-7-ylmethyl)-1H-indazole-5-carboxylic acid] to CC(C)Cn1ncc2cc(Cl)cc(Cn3ncc4cc(C(=O)O)ccc43)c21 [Compound 41, 1-(5-Chloro-1-isobutyl-1H-indazol-7-ylmethyl)-1H-indazole-5-carboxylic acid], the Kb falls from 1700 nM to 460 nM (3.7-fold).

Compared with CC(C)Cn1ncc2cc(Cl)cc(Cn3ncc4cc(C(=O)O)cnc43)c21 [Compound 49, 1-(5-Chloro-1-isobutyl-1H-indazol-7-ylmethyl)-1H-pyrazolo[3,4-b]pyridine-5-carboxylic acid], CC(C)Cn1ncc2cc(Cl)cc(Cn3cnc4cc(C(=O)O)cnc43)c21 [Compound 51, 3-(5-Chloro-1-isobutyl-1H-indazol-7-ylmethyl)-3H-imidazo[4,5-b]pyridine-6-carboxylic acid] is higher in Kb: 3500 nM for the first, greater than 10000 nM for the second.

Going from Cc1nn(Cc2cc(Br)cc3cnn(CC(C)C)c23)c2ccc(C(=O)O)cc12 [Compound 53, 1-(5-Bromo-1-isobutyl-1H-indazol-7-ylmethyl)-3-methyl-1H-indazole-5-carboxylic acid] to Cc1nn(Cc2cc(Br)cc3cnn(CC(C)C)c23)c2ncc(C(=O)O)cc12 [Compound 54, 1-(5-Bromo-1-isobutyl-1H-indazol-7-ylmethyl)-3-methyl-1H-pyrazolo[3,4-b]pyridine-5-carboxylic HCl salt], the Kb falls from 640 nM to 200 nM (3.2-fold).

Compared with CC(C)Cn1ncc2cc(Cl)cc(Cn3nc(N)c4cc(C(=O)O)ccc43)c21 [Compound 68, 3-Amino-1-[(5-chloro-1-isobutyl-indazol-7-yl)methyl]indazole-5-carboxylic acid], CNc1nn(Cc2cc(Cl)cc3cnn(CC(C)C)c23)c2ccc(C(=O)O)cc12 [Compound 70, 1-[(5-Chloro-1-isobutyl-indazol-7-yl)methyl]-3-(methylamino)indazole-5-carboxylic acid] is 3.7-fold lower in Kb: 3700 nM for the first, 1000 nM for the second.

Going from CCC(CC)Cn1ncc2cc(Br)cc(Cn3ncc4cc(C(=O)O)ccc43)c21 [Compound 47, 1-[5-Bromo-1-(2-ethyl-butyl)-1H-indazol-7-ylmethyl]-1H-indazole-5-carboxylic acid] to CCCn1ncc2cc(Cl)cc(Cn3ncc4cc(C(=O)O)ccc43)c21 [Compound 48], the Kb rises from 1400 nM to 5500 nM (3.9-fold).

First: CC(C)Cn1ncc2cc(C(F)(F)F)cc(Cn3ncc4cc(C(=O)O)ccc43)c21 [Compound 44, 1-(1-Isobutyl-5-trifluoromethyl-1H-indazol-7-ylmethyl)-1H-indazole-5-carboxylic acid]
Second: CC(C)Cn1ncc2cc(Cl)cc(Cc3ncc4cc(C(=O)O)ccn34)c21 [Compound 61, 3-[(5-Chloro-1-isobutyl-indazol-7-yl)methyl]imidazo[1,5-a]pyridine-7-carboxylic acid]
The Kb of the first is 4.7-fold lower: 1000 nM for the first, 4700 nM for the second.

In the case of CC(C)Cn1ncc2cc(Cl)cc(Cn3ccc4cc(C(=O)O)cnc43)c21 [Compound 52, 1-(5-Chloro-1-isobutyl-1H-indazol-7-ylmethyl)-1H-pyrrolo[2,3-b]pyridine-5-carboxylic acid], the “FLIPR data DP1 (Kb)” value was “Ag”.
